The text below walks through data of patent US20020082213A1 (priority 1996, published 2002).

The subject of test [1] is female albino mice (Ibm: MORO). Put plainly: Operant conflict test for anxiolytic effect. It is filed as in vivo. The conditions noted are these: 10 mg/kg oral, 30 minutes prior to testing.
The next test deals with LC132 receptors. The conditions noted are these: cited from earlier work.

`CN1C(=O)CN=C(c2ccccc2)c2cc(Cl)ccc21` [diazepam]: in test [1], the punished lever-pressing entry is on record as “enhanced punished lever-pressing” and the unpunished responding entry is listed as “some reduction of unpunished responding”.

In the case of dynorphin A, the “inhibition of cyclic AMP formation” value in the test on LC132 receptors was “weakly inhibited”.
